Common to all, as to assay: relative viability (nuclei count vs DMSO), 5 days (fraction); higher = more cells survive
Compound in one test: OCc1c[nH]c2ccccc12 [Indole-3-carbinol]
Put shortly:
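Viability was read as treated-well nuclei divided by vehicle-well nuclei, using the median across plates. Lung cancer cell lines in 1536-well plates were kept overnight at 37 °C, pinned with five √10-spaced library-drug doses, and after 5 days were Hoechst-stained, imaged at 4× and counted in MetaXpress. Plates passed only with control CV below 25% and at least one doubling.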

Compound in test [1]: OCc1c[nH]c2ccccc12 [Indole-3-carbinol] + Cc1nc(NC(=O)N2CCC[C@H]2C(N)=O)sc1-c1ccnc(C(C)(C)C(F)(F)F)c1 [Alpelisib] (partner 2 µM)
Put shortly:
(§1)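 Relative viability equals treated-well nuclei counts divided by vehicle-well nuclei counts. Counts came from 4× images of lung cancer cell lines grown in 1536-well plates for 5 days after pin-tool dosing on the day after seeding. Dosing used one drug alone or a fixed anchor-drug dose plus five library-drug doses (not always all listed) in √10 steps, and values are medians of duplicate plates.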

Compound in test [2]: OCc1c[nH]c2ccccc12 [Indole-3-carbinol] + C[C@@H](Oc1cc(-c2cnn(C3CCNCC3)c2)cnc1N)c1c(Cl)ccc(F)c1Cl [Crizotinib] (partner 1 µM)
In outline: as §1

Compound in test [3]: OCc1c[nH]c2ccccc12 [Indole-3-carbinol] + Cc1nc(Nc2ncc(C(=O)Nc3c(C)cccc3Cl)s2)cc(N2CCN(CCO)CC2)n1 [Dasatinib] (partner 0.075 µM)
In outline:
as §1

Compound in test [4]: OCc1c[nH]c2ccccc12 [Indole-3-carbinol] + O=C(c1cc(Cc2n[nH]c(=O)c3ccccc23)ccc1F)N1CCN(C(=O)C2CC2)CC1 [Olaparib] (partner 8 µM)
In outline: as §1

Take NCI-H1755: the relative viability was determined as 1.05 in the test with Indole-3-carbinol (0.253 µM); 0.997 with Indole-3-carbinol (0.8 µM); 0.993 in the test with Indole-3-carbinol (2.53 µM); 0.929 with Indole-3-carbinol (8 µM); 0.97 in test [1] (first compound 0.253 µM); 0.935 in test [1] (first compound 0.8 µM). Further, the relative viability in test [1] (first compound 2.53 µM) was determined as 0.907; in test [1] (first compound 8 µM), 0.886; in test [2] (first compound 0.253 µM), 0.916; in test [2] (first compound 0.8 µM), 0.97; in test [2] (first compound 2.53 µM), 0.862; in test [2] (first compound 8 µM), 0.888. The relative viability came to 0.441 in test [3] (first compound 0.253 µM); 0.456 in test [3] (first compound 0.8 µM); 0.706 in test [3] (first compound 2.53 µM); 0.364 in test [3] (first compound 8 µM); 0.894 in test [4] (first compound 0.253 µM); 0.926 in test [4] (first compound 0.8 µM). The relative viability in test [4] (first compound 2.53 µM) was 0.929; in test [4] (first compound 8 µM), 0.872.

For NCI-H1792, the relative viability with Indole-3-carbinol (0.253 µM) was 0.88; with Indole-3-carbinol (0.8 µM), 0.833; with Indole-3-carbinol (2.53 µM), 0.811; with Indole-3-carbinol (8 µM), 0.984; in test [1] (first compound 0.253 µM), 0.713; in test [1] (first compound 0.8 µM), 0.68. The relative viability was 0.77 in test [1] (first compound 2.53 µM); 0.673 in test [1] (first compound 8 µM); 0.95 in test [2] (first compound 0.253 µM); 1.01 in test [2] (first compound 0.8 µM); 0.95 in test [2] (first compound 2.53 µM); 0.984 in test [2] (first compound 8 µM). The relative viability was 0.823 in test [3] (first compound 0.253 µM); 1.05 in test [3] (first compound 0.8 µM); 0.845 in test [3] (first compound 2.53 µM); 0.737 in test [3] (first compound 8 µM); 0.612 in test [4] (first compound 0.253 µM); 0.532 in test [4] (first compound 0.8 µM). Further, the relative viability in test [4] (first compound 2.53 µM) was 0.553; in test [4] (first compound 8 µM) it was 0.3.

As to NCI-H1915, the relative viability with Indole-3-carbinol (0.253 µM) stood at 1.01; in the test with Indole-3-carbinol (0.8 µM) it was 1.01; in the test with Indole-3-carbinol (2.53 µM) it was 0.956; in the test with Indole-3-carbinol (8 µM), 0.976; in test [1] (first compound 0.253 µM), 1.05; in test [1] (first compound 0.8 µM), 1.05. Moreover, the relative viability in test [1] (first compound 2.53 µM) is 1.07; in test [1] (first compound 8 µM), 1.03; in test [2] (first compound 0.253 µM), 0.881; in test [2] (first compound 0.8 µM) it was 0.852; in test [2] (first compound 2.53 µM) it was 0.892; in test [2] (first compound 8 µM) it was 0.924. In addition, the relative viability in test [3] (first compound 0.253 µM) amounted to 0.285; in test [3] (first compound 0.8 µM), 0.311; in test [3] (first compound 2.53 µM) it was 0.328; in test [3] (first compound 8 µM) it was 0.291; in test [4] (first compound 0.253 µM), 0.253; in test [4] (first compound 0.8 µM) it was 0.243. The relative viability was 0.282 in test [4] (first compound 2.53 µM) and 0.25 in test [4] (first compound 8 µM).

In the case of NCI-H1944, the relative viability stood at 0.971 in the test with Indole-3-carbinol (0.253 µM); 0.793 with Indole-3-carbinol (0.8 µM); 0.955 in the test with Indole-3-carbinol (2.53 µM); 0.962 in the test with Indole-3-carbinol (8 µM); 0.871 in test [1] (first compound 0.253 µM); 0.805 in test [1] (first compound 0.8 µM). In addition, the relative viability was found to be 0.725 in test [1] (first compound 2.53 µM); 0.822 in test [1] (first compound 8 µM); 1.06 in test [2] (first compound 0.253 µM); 0.951 in test [2] (first compound 0.8 µM); 1.12 in test [2] (first compound 2.53 µM); 0.955 in test [2] (first compound 8 µM). The relative viability in test [3] (first compound 0.253 µM) is 0.207; in test [3] (first compound 0.8 µM) it was 0.192; in test [3] (first compound 2.53 µM), 0.233; in test [3] (first compound 8 µM) it was 0.232; in test [4] (first compound 0.253 µM), 0.38; in test [4] (first compound 0.8 µM) it was 0.348. For the same cell line, the results for the relative viability in test [4] (first compound 2.53 µM) and in test [4] (first compound 8 µM) were 0.388 and 0.368, respectively.

NCI-H1975: the relative viability with Indole-3-carbinol (0.253 µM) was found to be 1.04; with Indole-3-carbinol (0.8 µM), 0.93; in the test with Indole-3-carbinol (2.53 µM), 1; with Indole-3-carbinol (8 µM) it was 0.897; in test [1] (first compound 0.253 µM), 0.635; in test [1] (first compound 0.8 µM) it was 0.734. For the same cell line, the relative viability in test [1] (first compound 2.53 µM) was found to be 0.736; in test [1] (first compound 8 µM), 0.583; in test [2] (first compound 0.253 µM), 1; in test [2] (first compound 0.8 µM), 1.13; in test [2] (first compound 2.53 µM) it was 0.966; in test [2] (first compound 8 µM) it was 0.97. The relative viability in test [3] (first compound 0.253 µM) was found to be 0.376; in test [3] (first compound 0.8 µM) it was 0.426; in test [3] (first compound 2.53 µM), 0.329; in test [3] (first compound 8 µM), 0.35; in test [4] (first compound 0.253 µM) it was 0.801; in test [4] (first compound 0.8 µM) it was 0.847. The relative viability in test [4] (first compound 2.53 µM) is 0.822; in test [4] (first compound 8 µM) it was 0.77.

On to NCI-H1993, for which the relative viability with Indole-3-carbinol (0.253 µM) turned out to be 1.06; with Indole-3-carbinol (0.8 µM), 1.07; in the test with Indole-3-carbinol (2.53 µM) it was 0.872; in the test with Indole-3-carbinol (8 µM), 0.919; in test [1] (first compound 0.253 µM), 0.723; in test [1] (first compound 0.8 µM) it was 0.663. The relative viability in test [1] (first compound 2.53 µM) was 0.631; in test [1] (first compound 8 µM) it was 0.674; in test [2] (first compound 0.253 µM), 0.873; in test [2] (first compound 0.8 µM), 0.896; in test [2] (first compound 2.53 µM), 0.813; in test [2] (first compound 8 µM), 0.944. In addition, the relative viability worked out at 0.762 in test [3] (first compound 0.253 µM); 0.619 in test [3] (first compound 0.8 µM); 0.662 in test [3] (first compound 2.53 µM); 0.605 in test [3] (first compound 8 µM); 1.01 in test [4] (first compound 0.253 µM); 1.12 in test [4] (first compound 0.8 µM). The relative viability in test [4] (first compound 2.53 µM) amounted to 0.98; in test [4] (first compound 8 µM), 0.927.

Turning to NCI-H2009, the relative viability with Indole-3-carbinol (0.253 µM) was found to be 1.05; with Indole-3-carbinol (0.8 µM), 1.03; with Indole-3-carbinol (2.53 µM) it was 1.01; in the test with Indole-3-carbinol (8 µM), 0.951; in test [1] (first compound 0.253 µM), 1.17; in test [1] (first compound 0.8 µM) it was 1.23. Also, the relative viability was determined as 1.16 in test [1] (first compound 2.53 µM); 1.11 in test [1] (first compound 8 µM); 0.993 in test [2] (first compound 0.253 µM); 1.07 in test [2] (first compound 0.8 µM); 0.953 in test [2] (first compound 2.53 µM); 1 in test [2] (first compound 8 µM). The relative viability in test [3] (first compound 0.253 µM) amounted to 0.316; in test [3] (first compound 0.8 µM) it was 0.305; in test [3] (first compound 2.53 µM), 0.33; in test [3] (first compound 8 µM), 0.3; in test [4] (first compound 0.253 µM) it was 0.674; in test [4] (first compound 0.8 µM) it was 0.768. Further, the results for the relative viability in test [4] (first compound 2.53 µM) and in test [4] (first compound 8 µM) were 0.7 and 0.649, respectively.

The record behind these values is the supplement of paper PMC10307832.
